Laboratory results from patent US11413267B2, “Methods and compositions for inhibition of ATR and FANCD2 activation” (priority 2012, dated 2022).

What was measured:
MDA-MB-231 cells = experiment: Mitotic entry assay (phospho-histone H3 Ser10, nocodazole trap, flow cytometry); format: cell-based, human
From the text: Of these, the G2/M checkpoint involves ATM and ATR in collaboration, whereas the S/M checkpoint is mediated solely by ATR. To maintain genetic integrity, ATR can prevent premature mitotic entry in the event of incomplete DNA replication or unrepaired DNA damage. In order to evaluate the effect of benzopyran-4-one derivatives on these ATR-associated DNA damage checkpoints, we observed the effect of benzopyran-4-one derivatives on mitotic entry following hydroxyurea or cisplatin treatment.
(§1) DNA replication was measured using a Click-it EdU assay kit, which is based on incorporation of the thymidine analogue 5-ethynyl-2′-deoxyuridine (EdU) into DNA during replication (Invitrogen). Then, 10 μM EdU was added to the cell culture medium 30 min before the cells were harvested and fixed in 4% paraformaldehyde. After cycloaddition, EdU was detected with Alexa Fluor 647 using click reaction catalyzed by Cu (II), and the DNA content was stained by CellCycle 405-blue. To assay the mitotic entry, cells were treated with the indicated drugs and trapped in 70 nM nocodazole for 16 h, and antibodies against phospho-histone H3 Ser10 and PI were used to stain the mitotic cells and DNA content, respectively. An FITC Annexin V apoptosis detection kit was used to characterize the phenotype of cell death based on PI and Annexin V double staining (BD Pharmingen, San Diego, Calif.). Fluorescence-labeled cells were subsequently analyzed by the BD LSR II flow cytometer with a suitable selection of excitation and emission wavelengths. The percentages of different fluorescent cells were analyzed using WinMDI Ver. 2.9.

[1] = system: ATR-dependent Chk1 phosphorylation; experiment: Immunoblot of DNA damage-induced Chk1 phosphorylation; format: cell-based, human; conditions: after H2O2 damage
From the text: (§2) We hypothesized that genes with functions associated with DNA damage checkpoints and/or DNA repair might be targeted by benzopyran-4-one derivatives. To test this hypothesis, we assessed the effects of benzopyran-4-one derivatives on DDR induced by H2O2. […] In response to DNA double-strand breaks (DSBs), FANCD2 is known to be monoubiquitinated on K561 (FANCD2-Ub) in an ATR-dependent manner to stimulate repair (Andreassen P R, et al. Genes Dev 2004).
(§3) To elucidate the specificity of the benzopyran-4-one derivatives inhibition on ATR-mediated signaling, we compared the change between cells treated with benzopyran-4-one derivatives or the ATM-specific inhibitor KU55933 before the induction of DDR.
(§4) MDA-MB-231 (breast adenocarcinoma; ATCC HTB-26, BCRC 60425) and A549 (lung adenocarcinoma; ATCC CCL-185, BCRC 60074) human cell lines were purchased from Bioresource Collection and Research Center (BCRC, Hsinchu, Taiwan), and were authenticated by American Type Culture Collection (ATCC, Manassas, Va.). U2OS (osteosarcoma), HeLa (cervical adenocarcinoma), and HEK 293T (embryonic kidney cells) human cell lines were provided by Dr. Sheau-Yann Shieh (Institute of Molecular Biology, Academia Sinica, Taipei, Taiwan). Cells were maintained in Dulbecco's modified Eagle's medium (DMEM, Sigma-Aldrich) supplemented with 10% fetal bovine serum (FBS) (Gibco). […] For UV irradiation treatment, the cells were irradiated for 10 J/m^2 by a cross-linker (UVP) 1 h prior to analysis.
(§5) Cell lysate preparations, gel electrophoresis, and immunoblotting were performed as previously described (23). The binding of primary antibodies were detected by horseradish peroxidase-coupled secondary antibodies (Jackson ImmunoResearch) followed by enhanced chemiluminescence (ECL) (Millipore). The images of non-saturated bands were captured using a luminescent image analyzer (LAS-4000 mini; Fujifilm). The antibodies used in this study are listed in supplementary materials.

DNA replication = experiment: EdU incorporation assay of DNA replication; format: cell-based; conditions: 10 μM
Experimental: as §1, with “5-ethynyl-2'-deoxyuridine” for “5-ethynyl-2′-deoxyuridine”, “To assay the mitotic entry, cells were treated with the indicated drugs and trapped in 70 nM nocodazole for 16 h, and antibodies against phospho-histone H3 Ser10 and PI were used to stain the mitotic cells and DNA content, respectively.” left out

[2] = system: ATM-mediated Chk2 phosphorylation; experiment: Immunoblot of DNA damage-induced Chk2 phosphorylation / ATM autophosphorylation; format: cell-based, human; conditions: after H2O2 damage
From the text: as §2, §3, §4, §5

CHO cells = experiment: In vitro chromosome aberration test; format: cell-based, Chinese Hamster; conditions: 2.00 μM
Experimental: To test this hypothesis, we investigated the cytogenetic effect of Protoapigenone (I-1) on CHO cells (FIG. 1).
In brief, 5×10^5 Chinese Hamster Ovary (CHO) cells were seeded in 60-mm dishes 1 d before the experiment. Protoapigenone (I-1)-induced structural chromosomal changes after 20 h were compared with that of the cells cultured in 2 μM mitomycin C. At 18 h after Protoapigenone (I-1), 0.1 μg/mL colchicine was added for 2 h, and metaphase cells were collected by shaking them off the dishes. Mitotic cells were treated with 0.5% KCl for 10 min and fixed with a 3:1 mixture of methanol: glacial acetic acid. The cells were then spread on slides for chromosome staining with 5% Giemsa solution. We then analyzed the chromosome structure of 200 well-spread metaphase cells (100 metaphase cells/experiment) under a 100× oil immersion objective.

[3] = DNA-damaging agent alone (Control group column)

SMILES: N.N.[Cl][Pt][Cl] [Cisplatin]
- The percentage of mitotic cells (MDA-MB-231 cells; [3]): 5.35 ± 0.07%

SMILES: NC(=O)NO [Hydroxyurea]
- The percentage of mitotic cells (MDA-MB-231 cells; [3]): 4.46 ± 0.67%

SMILES: O=c1cc(-c2cccc3c2Sc2ccccc2S3)oc(N2CCOCC2)c1 [KU55933]
- Effect on ATR-mediated Chk1 phosphorylation [1]: small
- Percentage of EdU incorporation compared with control group (DNA replication): not
- Percentage of mitotic cells in cisplatin-treated cells (G2/M checkpoint), in words (MDA-MB-231 cells; cisplatin-treated cells): increased the percentage of mitotic cells
- The percentage of mitotic cells (MDA-MB-231 cells; compound alone (Control group, no DNA-damaging agent)): 20.29 ± 1.48%
- The percentage of mitotic cells (MDA-MB-231 cells; compound with Cisplatin (G2/M checkpoint)): 9.70 ± 0.25%
- The percentage of mitotic cells (MDA-MB-231 cells; compound with Hydroxyurea (S/M checkpoint)): 11.19 ± 0.76%
- ATM-mediated Chk2 phosphorylation [2]: strongly inhibited

SMILES: CO[C@@]12[C@H](COC(N)=O)C3=C(C(=O)C(C)=C(N)C3=O)N1C[C@@H]1N[C@@H]12 [Mitomycin C, reference compound]
- Chromatid break (No.) (CHO cells; 200 cells per treatment): 2 No.
- Chromatid deletion (CHO cells; 200 cells per treatment): 3 No.
- Complex rerrangement (CHO cells; 200 cells per treatment): 2 No.
- Dicentric (CHO cells; 200 cells per treatment): 1 No.
- Polyploid (CHO cells; 200 cells per treatment): 0 No.
- Pulverized cell (CHO cells; 200 cells per treatment): 5 No.
- Quadriradial (CHO cells; 200 cells per treatment): 29 No.
- Ring (CHO cells; 200 cells per treatment): 0 No.
- Triradial (CHO cells; 200 cells per treatment): 42 No.
- Average aberrant metaphases (%) (CHO cells; * significant vs. control by t-test): 42.0 * %
